Reference: a compilation of properties of binary mixtures (doi:10.1021/jp5065243)

Test: xn = mol fraction of the nth substance listed
Settings: 101 kPa

CC(O)C(C)O (configuration not stated) + CCCC[N+](C)(C)C.O=S(=O)([N-]S(=O)(=O)C(F)(F)F)C(F)(F)F
viscosity [mPa·s]
Settings | x1 = 0.0879 | x1 = 0.3137 | x1 = 0.4515 | x1 = 0.557 | x1 = 0.6216 | x1 = 0.8142 | x1 = 1
323.15 K | 28.8 | 20.9 | 18.2 | – | – | 15.29 | 17
328.15 K | 24.4 | 17.7 | 15.32 | – | 13.26 | 12.34 | 13.13
333.15 K | 20.9 | – | – | – | 11.09 | 10.19 | 10.34
338.15 K | 18.1 | 13.22 | 11.32 | 10 | 9.39 | 8.53 | 8.27
343.15 K | 15.83 | 11.16 | 9.89 | 8.68 | 8.03 | 7.33 | –

CC(O)CO (configuration not stated) + CCCC[N+](C)(C)C.O=S(=O)([N-]S(=O)(=O)C(F)(F)F)C(F)(F)F
x1 = 1
Settings | viscosity [mPa·s]
323.15 K | 12.2
328.15 K | 9.85
333.15 K | 8
338.15 K | 6.41
343.15 K | 5.27
348.15 K | 4.54

CCC(O)CO (configuration not stated) + CCCC[N+](C)(C)C.O=S(=O)([N-]S(=O)(=O)C(F)(F)F)C(F)(F)F
x1 = 1
Settings | viscosity [mPa·s]
323.15 K | 12.85
333.15 K | 8.33
338.15 K | 6.83
343.15 K | 5.65
348.15 K | 4.75
353.15 K | 4.03

CC(O)CO (configuration not stated) + C[N+](C)(C)CCO.O=S(=O)([N-]S(=O)(=O)C(F)(F)F)C(F)(F)F
x1 = 1
Settings | viscosity [mPa·s]
313.15 K | 19.1
318.15 K | 15.17
323.15 K | 12.2
328.15 K | 9.85
333.15 K | 8
338.15 K | 6.4
343.15 K | 5.27
348.15 K | 4.5
353.15 K | 3.78

OCCCCCO + C[N+](C)(C)CCO.O=S(=O)([N-]S(=O)(=O)C(F)(F)F)C(F)(F)F
x1 = 1
Settings | viscosity [mPa·s]
313.15 K | 45.6
318.15 K | 36.9
323.15 K | 29.8
328.15 K | 24.5
338.15 K | 16.84
343.15 K | 14.44

OCCCO + C[N+](C)(C)CCO.O=S(=O)([N-]S(=O)(=O)C(F)(F)F)C(F)(F)F
x1 = 1
Settings | viscosity [mPa·s]
313.15 K | 20.3
318.15 K | 16.88
323.15 K | 14.16
328.15 K | 12.01
333.15 K | 10.24
343.15 K | 7.47
348.15 K | 6.62
353.15 K | 5.8

C[N+](C)(C)CCO.O=S(=O)([N-]S(=O)(=O)C(F)(F)F)C(F)(F)F + OCCCCCO
viscosity [mPa·s]
Settings | x2 = 0 | x2 = 0.1351 | x2 = 0.2149 | x2 = 0.4145 | x2 = 0.5087 | x2 = 0.6847 | x2 = 0.7858 | x2 = 0.9071
313.15 K | 56.4 | 49.5 | 45.2 | 38.4 | 37 | 36.8 | 37.8 | 40.8
318.15 K | 46.8 | 40.8 | – | 31.4 | 30.2 | 29.7 | 30.3 | 32.9
323.15 K | – | 34.2 | – | 26.1 | 24.9 | 24.3 | 24.7 | 26.8
328.15 K | 33.4 | 28.9 | – | 22 | 20.9 | 20.2 | 20.2 | 22
333.15 K | 28.6 | 24.7 | – | 18.7 | 17.7 | 17 | 16.86 | 18.3
338.15 K | 24.6 | 21.3 | 19.5 | – | 15.17 | 14.44 | 14.12 | 15.4
343.15 K | 21.6 | 18.6 | 17 | 13.98 | 13.08 | – | 11.92 | 12.99

C[N+](C)(C)CCO.O=S(=O)([N-]S(=O)(=O)C(F)(F)F)C(F)(F)F + OCCCO
viscosity [mPa·s]
Settings | 313.15 K | 318.15 K | 323.15 K | 328.15 K | 333.15 K | 338.15 K | 343.15 K | 348.15 K | 353.15 K
x2 = 0 | 56.4 | – | 39.3 | – | 28.6 | 24.6 | 21.6 | – | 16.9
x2 = 0.1272 | – | 39.1 | 32.8 | 27.9 | – | 20.8 | 18.1 | 16 | 14.19
x2 = 0.2297 | 39.8 | 33.1 | 27.9 | 23.8 | – | – | – | 13.8 | 12.29
x2 = 0.4106 | – | 25.1 | 21.2 | 18.1 | 15.6 | 13.62 | 11.96 | 10.58 | 9.49
x2 = 0.5712 | – | 20.8 | 17.5 | 14.95 | 12.87 | 11.18 | 9.79 | – | 7.65
x2 = 0.6946 | 22.2 | 18.4 | 15.47 | 13.14 | – | – | 8.51 | 7.46 | 6.58
x2 = 0.8367 | 20.4 | 16.91 | – | – | 10.27 | 8.86 | 7.74 | 6.78 | –
x2 = 0.9474 | 19.5 | 16.22 | 13.62 | 11.54 | 9.86 | – | 7.36 | 6.39 | 5.57
